Experimental data as given in paper PMC3527664, “Kinetic properties and small-molecule inhibition of human myosin-6” (Febs Letters, 2012).
Each block holds one compound with its values, some of them ahead of it.

How the values were obtained:
human myosin-6 (M6-2R) [1] = molecular target: T1, human myosin-6 (M6-2R) (Homo sapiens, UniProt Q9UM54); test: stopped-flow, ATP binding to pyrene-acto•M6-2R; steady-state ATPase turnover; design: gene MYO6; M6-2R (human myosin-6 motor domain, amino acids 1-816, fused to artificial lever); with F-actin (pyrene-actin)
T1 sequence (Q9UM54 1-816): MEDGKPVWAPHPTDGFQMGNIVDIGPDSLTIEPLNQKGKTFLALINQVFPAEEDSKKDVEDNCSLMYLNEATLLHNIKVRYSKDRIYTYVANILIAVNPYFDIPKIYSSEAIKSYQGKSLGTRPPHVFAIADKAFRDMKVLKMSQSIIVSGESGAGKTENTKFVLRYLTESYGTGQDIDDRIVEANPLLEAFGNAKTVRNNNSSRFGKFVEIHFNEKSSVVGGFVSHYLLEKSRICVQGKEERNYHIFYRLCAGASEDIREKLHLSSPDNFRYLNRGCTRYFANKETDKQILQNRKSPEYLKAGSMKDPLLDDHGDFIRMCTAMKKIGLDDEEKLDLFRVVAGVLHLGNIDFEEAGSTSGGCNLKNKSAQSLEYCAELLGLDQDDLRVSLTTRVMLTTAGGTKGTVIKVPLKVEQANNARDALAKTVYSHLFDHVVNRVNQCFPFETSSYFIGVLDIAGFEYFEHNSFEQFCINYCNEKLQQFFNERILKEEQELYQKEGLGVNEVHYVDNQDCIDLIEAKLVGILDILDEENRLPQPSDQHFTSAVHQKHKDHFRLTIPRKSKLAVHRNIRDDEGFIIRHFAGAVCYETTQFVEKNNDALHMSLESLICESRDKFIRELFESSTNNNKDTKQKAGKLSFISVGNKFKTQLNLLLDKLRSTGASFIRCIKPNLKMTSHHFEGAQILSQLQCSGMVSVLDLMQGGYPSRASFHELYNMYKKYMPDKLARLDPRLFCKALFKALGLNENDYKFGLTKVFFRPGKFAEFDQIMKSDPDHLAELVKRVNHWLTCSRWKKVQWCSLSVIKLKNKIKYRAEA
From the text: stopped-flow, ATP binding to pyrene-acto•M6-2R; steady-state ATPase turnover on human myosin-6 (M6-2R) | ATP binding to the complex formed by pyrene–actin and M6-2R show a linear dependence on [ATP]

human myosin-6 (M6-2R) [2] = molecular target: T1, human myosin-6 (M6-2R); test: actin-activated ATPase assay (NADH-coupled), biphasic inhibition; binding also by MST (data not shown); assay type: biochemical; design: gene MYO6; amino acids 1-816 of human myosin-6 motor domain fused to an artificial lever derived from Dictyostelium discoideum α-actinin (M6-2R); with F-actin (rabbit skeletal muscle); calmodulin associated with insert-2
human myosin-6 (M6-2R) [3] = molecular target: T1, human myosin-6 (M6-2R); test: stopped-flow fluorescence, second-order binding rate constant K1k+[…]; design: gene MYO6; M6-2R (human myosin-6 motor domain, amino acids 1-816, fused to artificial lever)
human myosin-6 = molecular target: T2, human myosin-6 (Homo sapiens, UniProt Q9UM54); test: myosin-6 ATPase assay; MST affinity ranking; assay type: biochemical
T2 construct: gene MYO6; human myosin-6 motor domain construct M6-2R (amino acids 1-816)
T2 sequence (Q9UM54 1-816): as above

human myosin-6 (M6-2R) [4] = molecular target: T1, human myosin-6 (M6-2R); test: stopped-flow fluorescence, KD = k−D/k+D; assay type: binding; design: gene MYO6; M6-2R (human myosin-6 motor domain, amino acids 1-816, fused to artificial lever); conditions: read-out: Hs Myosin-6 ^a^, ^b

Compound: Nc1ncnc2c1ncn2[C@@H]1O[C@H](COP(=O)(O)OP(=O)(O)OP(=O)(O)O)[C@@H](O)[C@H]1O [ATP]
kon (human myosin-6 (M6-2R) [1]): 11000 ± 300 M⁻¹ s⁻¹

Compound: Oc1c(I)cc(I)cc1I [TIP, 2,4,6-triiodophenol]
Ki (human myosin-6 (M6-2R) [2]): 800 ± 500 nM

kon (human myosin-6 (M6-2R) [3]): 50000 ± 10000 M⁻¹ s⁻¹
Compound: CNc1ccccc1C(=O)O[C@H]1C[C@H](n2cnc3c(N)ncnc32)O[C@@H]1COP(=O)(O)OP(=O)(O)OP(=O)(O)O [d-mantATP, 2′-deoxy-3′-O-(N′-methylanthraniloyl)adenosine-5′-O-triphosphate]

Compound: Oc1c(Br)c(Br)c(Br)c(Br)c1Br [pentabromophenol]
myosin-6 ATPase assay; MST affinity ranking (human myosin-6): Pentabromophenol and TIP inhibit myosin-6 ATPase activity in the low micromolar range

Compound: mantADP
Kd (human myosin-6 (M6-2R) [4]): 2000 ± 150 nM
